How the values were obtained:
Helix pomatia Type H-1 = experiment: Cleavage by Helix pomatia Type H-1; type: biochemical; conditions: phosphate buffer pH 5, 6 and 7.4; room temperature
Protocol: (§1) The above compound was dissolved in a minimum of DMSO and added to Helix pomatia Type H-1 in phosphate buffer solutions at pH 5, 6 and 7.4, respectively at room temperature. Aliquots were taken out at different time points and LC-MS and HPLC used for analysis. LCMS analysis required a small organic extraction of each aliquot in order to remove the protein prior to analysis. Analytical HPLC allowed direct injection and offers high sensitivity and reliability. Caffeine was included as an internal standard. The compound was almost fully hydrolysed at 5 min.

acid phosphatase = experiment: Cleavage by acid phosphatase; type: biochemical; conditions: phosphate buffer pH 5, 6 and 7.4; room temperature
Protocol: as §1, with “acid phosphatase” for “Helix pomatia Type H-1”, “1 hour.” for “5 min.”

amano lipase = experiment: Cleavage by Amano lipase; type: biochemical, Pseudomonas fluorescens; conditions: phosphate buffer pH 5, 6 and 7.4; room temperature
Protocol: as §1, with “amano lipase” for “Helix pomatia Type H-1”

[1] = test system: Amano Lipase from Pseudomonas fluorescens; experiment: Lipase test of linker X8: cleavage and model drug release; type: biochemical; conditions: for time to full conversion to X10 and X11: 1 mg/mL lipase, room temperature
Protocol: Compound X8 was exposed to lipase in phosphate buffered solutions at pH 6 and 7.4. […] The pH 6 and 7.4 tests were conducted to determine if any difference in the rate of intramolecular lactonisation would be observed. Initial tests involved incubation of the linker (1 mM in 2% DMSO/buffer) with 1 mg/mL lipase (>20 U/mL) at room temperature (FIG. 16). Caffeine was included as an internal standard. Aliquots were taken out at different time points and LC-MS and HPLC used for analysis.

SMILES: O=C(NCCNC(=O)c1ccccc1)OCc1ccc(OS(=O)(=O)O)cc1
- time at which the compound was almost fully hydrolysed (Helix pomatia Type H-1): 5 min

SMILES: O=C(NCCOP(=O)(O)O)c1ccccc1
- time at which the compound was almost fully hydrolysed (acid phosphatase): 1 h

SMILES: CCCCCCCC(=O)OCCNC(=O)c1ccccc1
- time at which the compound was almost fully hydrolysed (amano lipase): 5 min

SMILES: CCCCCCCC(=O)OCCN(CC(=O)OCC(=O)c1ccc(Br)cc1)C(=O)c1ccccc1 [Example X8, 2-(N-(2-(2-(4-bromophenyl)-2-oxoethoxy)-2-oxoethyl)benzamido)ethyl octanoate]
- non-linear conversion to products, duration ([1]; FIG. 17, conditions not given): 114 min
- time to full conversion to X10 and X11 ([1]; pH 6): 60 min
- time to full conversion to X10 and X11 ([1]; pH 7.4, linker 1 mM in 2% DMSO/buffer): < 15 min
